Reference: US20100310518A1, “Combinations of Flubendiamide and Beneficial Species” (Bayer CropScience AG, priority 2009, published 2010)

Legend:
Myzus persicae = Myzus persicae test (drench application) on cabbage plants, with predatory bugs added; type: in vivo; conditions: flubendiamide alone, 1 mg of ai/l soil, cabbage plants (Brassica oleracea)
Excerpt: The expected action for a given combination of two active compounds can be calculated as follows, using the formula of S. R. Colby, Weeds 15 (1967), 20-22:
• X is the kill rate, expressed as % of the untreated control, when employing active compound A at an application rate of m g/ha, m mg of ai/plant or in a concentration of m ppm, • Y is the kill rate, expressed as % of the untreated control, when employing the beneficial species at an application rate of n animals or n units, and • E is the kill rate, expressed as % of the untreated control, when employing active compound
A and beneficial species B at an application rate of m ppm, m mg of ai/plant or g/ha and n animals or units,
If the actual insecticidal or acaricidal kill rate exceeds the calculated value, the kill of the combination is superadditive, i.e. a synergistic effect is present. In this case, the actually observed kill rate must exceed the value calculated using the above formula for the expected kill rate (E). […]
After the application, the predatory bugs (Macrolophus caliginosus) are added in a defined amount. After the desired period of time, the kill of the pest in % is determined 100% means that all of the aphids have been destroyed; 0% means that none of the aphids have been destroyed.
The kill rates determined are entered into Colby's formula (see above).

Plutella xylostella = Plutella xylostella test (drench application on rock wool); type: in vivo; conditions: for Kill in % after 7^d: 1 mg of ai/plant, drench, cabbage plants
Procedure: To produce a suitable preparation of active compound, 1 part by weight of active compound is mixed with the stated amounts of solvent and emulsifier, and the concentrate is diluted with water to the desired concentration.
Cabbage plants (Brassica oleracea) are watered with an active compound preparation of the desired concentration and infected with larvae of the diamondback moth (Plutella xylostella).
After the desired period of time, the kill of the pest in % is determined 100% means that all caterpillars have been killed; 0% means that none of the caterpillars have been killed.

## Cc1cc(C(F)(C(F)(F)F)C(F)(F)F)ccc1NC(=O)c1cccc(I)c1C(=O)NC(C)(C)CS(C)(=O)=O [flubendiamide, 3-iodo-N′-(2-mesyl-1,1-dimethylethyl)-N-{4-[1,2,2,2-tetrafluoro-1-(trifluoromethyl)ethyl]-o-tolyl}phthalamide]
Myzus persicae
  Kill in % after 4^h: 45%
Plutella xylostella; applied to soil-less substrates
  systemic efficacy: surprisingly good systemic efficacy
Plutella xylostella; on rock wool
  Kill in % after 7^d: 97%
Plutella xylostella; on sandy loam (prior art)
  Kill in % after 7^d: 40%
